Among the data in US10995064B2, “Sulfamoyl-arylamides and the use thereof as medicaments for the treatment of hepatitis B” (priority 2012, dated 2021) are CC50 and EC50 values, retold here.

In series [1] the test system is HepG2 cells. In words: Cytotoxicity in HepG2 cells, 4 days, Resazurin assay. To be noted: read-out: HepG2 4 days CC50, 4 days, Resazurin. A general note: The colour change of resazurin is a common sign of viable cells or microbes.
Series [2] has as its system HBV. Put plainly: anti HBV activity, HepG2.117 inducible (Tet-off) cell line, intracellular HBV DNA by realtime PCR. The format is cell-based. Conditions: HepG2.117 cells, 3 days of treatment.
The test system of series [3] is HBV. In words: anti-HBV activity, HepG2.2.15 stable transfected cell line, HBV DNA from secreted virions by realtime PCR. The format is cell-based. To be noted: HepG2.2.15 cells, 6 days of treatment, secreted virion HBV DNA.
A short description of series [4]: Cytotoxicity in HepG2 cells, 4 days, Resazurin assay. To be noted: human.
The subject of series [5] is HepG2 cells. In words: Cytotoxicity in HepG2 cells using CellTiter-Blue. The format is cell-based. To be noted: 6 days.

Bounds are passed on as bounds.

A word on the CC50: it is the concentration giving 50% cytotoxicity. With `O=C(Nc1ccc(F)cc1)c1cc(S(=O)(=O)N2CCCCC2)cs1` [Compound 61], in the series on HepG2 cells [1], the 50% cytotoxic concentration (CC50) turned out to be 35700 nM.

One may read the EC50 as the concentration at which the effect is half-maximal. A high value points to a less potent agent. Regarding `Cc1cc(NC(=O)c2cccc(S(=O)(=O)NC3CC(=O)N(C)C3)c2)ccc1F` (racemic) [Compound 179], the EC50 with HBV [2] (Hepatitis B virus, 72 h) worked out at 440 nM; with HBV [3] (Hepatitis B virus, 144 h), 210 nM.

Regarding `COC(=O)N1CCCC(NS(=O)(=O)c2cccc(C(=O)Nc3ccc(F)c(C)c3)c2)C1` (racemic) [Compound 159b], the values for the EC50 in the series with HBV [2] and in the series on HBV [3] were 230 nM and 160 nM, respectively.

With `Cc1cc(NC(=O)c2cccc(S(=O)(=O)N[C@H]3CC[C@H](O)C3)c2)ccc1F` (single isomer, unassigned) [Compound 145c, N-(4-fluoro-3-methyl-phenyl)-3-[[(1S,3S)-3-hydroxycyclopentyl]-sulfamoyl]benzamide or N-(4-fluoro-3-methyl-phenyl)-3-[[(1R,3R)-3-hydroxycyclopentyl]sulfamoyl]benzamide], the CC50 in the series on HepG2 cells [1] was above 25000 nM.

With `Cc1cc(NC(=O)c2cccc(S(=O)(=O)N[C@H]3Cc4ccccc4[C@H]3O)c2)ccc1F` (single isomer, unassigned) [Compound 141b, N-(4-fluoro-3-methyl-phenyl)-3-[[(1R,2S)-1-hydroxyindan-2-yl]sulfamoyl]benzamide or N-(4-fluoro-3-methyl-phenyl)-3-[[(1S,2R)-1-hydroxyindan-2-yl]sulfamoyl]benzamide], the half-maximal cytotoxic concentration (CC50) in the series with HepG2 cells [1] was above 25000 nM.

With `CC1(NS(=O)(=O)c2cccc(C(=O)Nc3ccc(F)cc3)c2)CCOCC1` [Compound 83], in series [4], the CC50 at 4 days is above 25000 nM.

The molecule `Cc1cc(NC(=O)c2cccc(S(=O)(=O)N[C@H]3CC[C@H](O)C3)c2)ccc1F` (single isomer, unassigned) [Compound 145d, N-(4-fluoro-3-methyl-phenyl)-3-[[(1S,3S)-3-hydroxycyclopentyl]-sulfamoyl]benzamide or N-(4-fluoro-3-methyl-phenyl)-3-[[(1R,3R)-3-hydroxycyclopentyl]sulfamoyl]benzamide] showed a half-maximal effective concentration (EC50) with HBV [3] of 400 nM.

`COC(=O)N1CCCC(NS(=O)(=O)c2cccc(C(=O)Nc3ccc(F)c(C)c3)c2)C1` (racemic) [Compound 159a]: the EC50 amounted to 860 nM with HBV [2] and 170 nM in the series with HBV [3].

`Cc1ccccc1NC(=O)c1cccc(S(=O)(=O)NC2CCCCC2)c1` [Compound 34] returned an EC50 with HBV [3] (Hepatitis B virus, 144 h) of 4180 nM. The molecule further showed a half-maximal cytotoxic concentration (CC50) in the series with HepG2 cells [5] above 25000 nM.

As to `COC(=O)N1CCCC(NS(=O)(=O)c2cccc(C(=O)Nc3ccc(F)c(C)c3)c2)C1` (racemic) [Compound 159], the EC50 in the series with HBV [2] (Hepatitis B virus, 72 h) was found to be 300 nM.

As to `Cc1cc(NC(=O)c2cccc(S(=O)(=O)NC3CC(=O)N(C)C3)c2)ccc1F` (racemic) [Compound 179a], the EC50 turned out to be 250 nM with HBV [2] and 380 nM in the series on HBV [3]. For the same molecule, the CC50 in the series on HepG2 cells [1] was above 25000 nM.

In the case of `CC1(NS(=O)(=O)c2cccc(C(=O)Nc3ccc(F)cc3)c2)COC1` [Compound 4], the 50% effective concentration (EC50) was 930 nM in the series with HBV [2] (Hepatitis B virus, 72 h) and 960 nM with HBV [3] (Hepatitis B virus, 144 h). Further, the CC50 in the series with HepG2 cells [1] was above 100000 nM.

In the case of `O=C(Nc1ccccc1)c1cc(S(=O)(=O)N2CCCCC2)c(Cl)cc1Cl` [Compound 20], the CC50 in the series on HepG2 cells [1] amounted to 79600 nM.

As for `Cc1cc(NC(=O)c2cccc(S(=O)(=O)N[C@@H]3CCC[C@H](O)C3)c2)ccc1F` (single isomer, unassigned) [Compound 134b, N-(4-fluoro-3-methyl-phenyl)-3-[[(1R,3S)-3-hydroxycyclohexyl]sulfamoyl]benzamide or N-(4-fluoro-3-methyl-phenyl)-3-[[(1S,3R)-3-hydroxycyclohexyl]sulfamoyl]benzamide], the concentration giving a half-maximal response (EC50) with HBV [2] is 200 nM.

On to `Cc1cc(NC(=O)c2cccc(S(=O)(=O)N[C@@H]3CC[C@H](O)C3)c2)ccc1F` (single isomer, unassigned) [Compound 145a, N-(4-fluoro-3-methyl-phenyl)-3-[[(1R,3S)-3-hydroxycyclopentyl]sulfamoyl]benzamide or N-(4-fluoro-3-methyl-phenyl)-3-[[(1S,3R)-3-hydroxycyclopentyl]sulfamoyl]benzamide], for which the half-maximal cytotoxic concentration (CC50) in the series with HepG2 cells [1] was above 25000 nM.

`Cc1cc(NC(=O)c2cccc(S(=O)(=O)N[C@H]3Cc4ccccc4[C@@H]3O)c2)ccc1F` (single isomer, unassigned) [Compound 141a, N-(4-fluoro-3-methyl-phenyl)-3-[[(1S,2S)-1-hydroxyindan-2-yl]-sulfamoyl]benzamide or N-(4-fluoro-3-methyl-phenyl)-3-[[(1R,2R)-1-hydroxyindan-2-yl]sulfamoyl]benzamide]: in the series with HBV [3], the EC50 was 700 nM. Also, in the series with HepG2 cells [1], the CC50 is above 25000 nM.

As for `Cc1cc(NC(=O)c2cccc(S(=O)(=O)NC3CCCC(O)C3)c2)ccc1F` (centres unmarked) [Compound 134], a half-maximal effect in the series with HBV [3] (Hepatitis B virus, 144 h) (EC50) was put at 180 nM.

With `Cc1cc(NC(=O)c2cccc(S(=O)(=O)NC3CC(=O)N(C)C3)c2)ccc1F` (racemic) [Compound 179b], the EC50 in the series on HBV [2] came to 1840 nM; in the series with HBV [3] it was 1110 nM. Also, the half-maximal cytotoxic concentration (CC50) in the series with HepG2 cells [1] was above 25000 nM.
